Reference: patent US9927444B2, “Bone marrow-derived hematopoietic progenitor cells and endothelial progenitor cells as prognostic indicators for cancer” (Cornell University, priority 2011, dated 2018)

Tests used:
[1] = tested on: serum ceruloplasmin (Cp); experiment: Serum ceruloplasmin (Cp) levels / copper depletion, phase II TM trial; assay type: in vivo, human
Method: (§1) This phase II, open-label, single-arm study was conducted to assess patients with breast cancer at high risk for relapse. Patients were enrolled on an Institutional Review Board approved trial (NCT00195091, 0903-882, 0309006307) at Weill Cornell Medical College (WCMC) Iris Cantor Breast Cancer Center. Written informed consent was obtained prior to undergoing any study-specific procedures in accordance with the Declaration of Helsinki.
TM was administered in two phases, induction and maintenance: A) Induction: Patients self-administered TM 180 mg by mouth daily in 4 divided doses until serum Cp levels decreased to a target range of 5-16 mg/dL. One month of TM therapy comprised 1 cycle. Cp levels were tested every 2 weeks for the first 4 weeks and then weekly until target Cp was reached. When Cp levels were within target range, patients were switched to the maintenance phase. B) Maintenance: TM 100 mg taken daily in divided doses. Patients were followed every 2 weeks for 4 weeks to ensure Cp levels were stable then every 4 weeks. Dose reductions in 20 mg increments were allowed to minimize toxicity. Dose increases in 20 mg increments were allowed every 2 weeks to keep Cp levels in target range. […] Patients brought completed medication logs to each visit. The duration of the trial was 2 years.
The ITT population consisted of 39 patients. […] Target for copper depletion was defined as Cp below 17 mg/dL. Of those who took at least one dose of TM, 59% […] of patients were effectively copper depleted and 15 patients (37.5%) were unable to be copper depleted. Mean Cp of copper depleted pts and non-copper depleted patients was 13.5 and 22.3 mg/dL, respectively (FIG. 1a). Patients spent a median of 78% of time (range 58 to 100%) within target Cp levels during the study . . . . […] 91% of triple-negative patients successfully copper depleted compared to the hormone-receptor subtypes (38-43%) and HER2-positive subtypes (40-67%) (FIG. 7B).

[2] = tested on: VEGFR2+ endothelial progenitor cells (EPCs); experiment: Enumeration of circulating EPCs by flow cytometry, phase II TM trial; assay type: in vivo, human
Method: (§2) Ten to 20 mL of venous blood were collected in EDTA-containing tubes and processed within 12 hours. Peripheral blood mononuclear cells were isolated by Ficoll density-gradient centrifugation. To quantitate circulating EPCs, cells were stained with CD133-PE (Miltenyi Biotec, Auburn, Calif.), VEGFR2-APC (R&D Systems, Minneapolis, Minn.), and CD45-PerCP (BD Biosciences, Franklin Lakes, N.J.). To quantitate HPCs, cells were stained with CD34-FITC (BD Biosciences), VEGFR1-APC (R&D Systems), and CD45-PerCP (BD Biosciences). An aliquot of cells was also stained with the appropriate isotype controls (mouse anti-human IgG1k). Samples were analyzed using a FACSCalibur flow cytometer (Bectin Dickinson, San Jose, Calif.). Three hundred thousand events were collected in the nucleated cell gate (excludes debris and platelets). Data analysis was done using FlowJo software (FlowJo, Ashland, Oreg.). A series of consecutive gates were made to include and exclude acquired events to quantitate specific populations such as CD45^+, CD34^+, VEGFR1^+. The number of EPCs and HPCs per mL of blood was calculated as follows: HPC/mL=(# HPC events/# lymphocyte events)×absolute lymphocyte count (lymphocytes/mL). EPC/mL=(# EPC events/# lymphocyte events)×absolute lymphocyte count (lymphocytes/mL). HPCs were defined as CD45^+, CD34^+, VEGFR1^+ (FIGS. 5A-5C). […]
(§3) PFS was analyzed using survival analysis techniques.

[3] = tested on: VEGFR1+ hematopoietic progenitor cells (HPCs); experiment: Enumeration of circulating HPCs by flow cytometry, phase II TM trial; assay type: in vivo, human; conditions: patients on TM
Method: as §2, §3

[4] = tested on: breast cancer at high risk for relapse; experiment: Clinical outcomes (relapse, progression-free survival), phase II TM trial; assay type: in vivo, human
Method: as §1
Patients underwent imaging of investigator's choice, CT of chest, abdomen, and pelvis or PET/CT every 6 months and as needed to assess for relapse, using Response Evaluation Criteria in Solid Tumors (RECIST).
as §3

[5] = tested on: SDF1, VEGFR2, C-kit; experiment: Plasma angiogenic factors and cytokine profiling, phase II TM trial; assay type: in vivo, human
Method: Plasma SDF-1 was detected by enzyme-linked immunosorbent assay (R&D Systems) according to manufacturer's protocol. Plasma levels of c-kit, VEGF, VEGFR1, VEGFR2, bFGF, and PIGF were detected by multiplex assay (Meso Scale Discovery, Gaithersburg, Md.) per manufacturer protocol.
as §3

[6] = in vivo
From the text: (§4) The National Cancer Institute—Common Toxicity Criteria for Adverse Events (CTCAE) version 3.0 were used for toxicity and adverse event reporting. In the event of grade 3/4 toxicity, dosing was held until recovery. Treatment was resumed at the investigator's discretion at 50% of the previous dose. […] In the event of grade 2 toxicity, the dose of TM was held until recovery and a new cycle could be initiated at 100%. If grade 2 toxicity recurred, dosing was held until recovery and the next cycle was resumed at 50%. All patients were available to be evaluated for toxicity.
(§5) The intent-to-treat (ITT) population consisted of all patients who received at least one dose of TM. […] The following outcomes were recorded: toxicity attributable to TM, time to progression of disease, number of circulating hemangiogenic progenitor cells, serum markers of angiogenesis. Descriptive statistics for demographic and angiogenic variables were calculated for all patients. […] All p-values were two-sided with statistical significance evaluated at the 0.05 alpha level. All analyses were performed in SPSS Version 18.0 (SPSS Inc., Chicago, Ill.).

[7] = tested on: advanced malignancy refractory to standard therapy; conditions: phase I; cited from earlier work
[8] = tested on: advanced renal cell carcinoma; conditions: 13 patients; cited from earlier work
[9] = tested on: malignant mesothelioma; conditions: after adjuvant TM; doubling from 10; cited from earlier work
[10] = reversible, managed with dose reductions; cited from earlier work
[11] = stored under argon; cited from earlier work
[12] = Safety and tolerability (CTCAE version 3.0), phase II TM trial
From the text: as §4, §5

[SH-].[SH-].[S]=[Mo]=[S] [TM, Tetrathiomolybdate]
patients unable to be copper depleted ([1]; 15 patients): 37.5% | patients successfully copper depleted ([1]; HER2-positive subtypes): 40-67% | mean Cp level on TM ([1]; ITT population, at a median of 4 weeks, median baseline Cp 29.7 mg/dL (range 21 to 47), range 7 to 26): 14.2 mg/dL | mean Cp of copper depleted pts ([1]; copper depleted patients): 13.5 mg/dL | patients successfully copper depleted ([1]; hormone-receptor subtypes): 38-43% | mean Cp of non-copper depleted patients ([1]; non-copper depleted patients): 22.3 mg/dL | median % of time within target Cp levels during the study ([1]; range 58 to 100%): 78% | patients effectively copper depleted ([1]; those who took at least one dose of TM, target Cp below 17 mg/dL, printed 23/40): 59% | patients successfully copper depleted ([1]; triple-negative patients): 91% | median number of EPCs ([2]; at 1 year of TM therapy, median baseline 0.0398 (range 0-0.21), range 0-0.18): 0.0363 cells/uL | EPCs relative to baseline ([2]; majority of patients, when Cp was in the target range): maintained below baseline | change in HPCs [3]: no significant changes | 10-month PFS ([4]; all patients, 95% CI, 74.6-96.8%): 85.0% | patients who developed recurrence ([4]; first 12 months of study, six patients): 15% | 10-month PFS ([4]; hormone-receptor-positive patients): 85.7% | 10-month PFS ([4]; stage 2 and 3 patients): 89.3% | 10-month PFS ([4]; stage 4 NED patients): 75.0% | 10-month PFS ([4]; triple-negative patients): 81.8% | mean SDF1 ([5]; non-relapsed patients, decreased from 1870): 1811 pg/mL | change in SDF1, VEGFR2, and C-kit ([5]; patients while on therapy): did not significantly change | mean SDF1 ([5]; patients who relapsed, increased from 2093): 3052 pg/mL | treatment-related deaths [6]: no treatment-related deaths | induction of copper depletion [7]: effective at inducing copper depletion | patients maintaining stable disease for at least 90 days [7]: 15 of 40 | tolerability [7]: well-tolerated | median duration of stable disease [8]: 34.5 weeks | time to progression [9]: 20 months | patients with grade 3 or 4 hematologic toxicity [10]: up to 40% | stability when exposed to air [11]: 8 weeks | grade 3 anemia, cycles ([12]; 1 cycle, patient later diagnosed with B12 deficiency): 0.2% | patients with dose interruptions, delays, reductions, or omissions due to toxicity ([12]; 3 of 39 ITT patients): 7.7% | grade 1 peripheral neuropathy, cycles ([12]; 6 cycles): 1.4% | grade ¾ neutropenia, patients ([12]; 9 patients): 23.1% | grade ¾ neutropenia, cycles ([12]; 13 cycles): 3.1% | grade ½ anemia, patients ([12]; 14 patients): 35.9% | grade ½ neutropenia, patients ([12]; 23 patients): 59.0% | grade 1 fatigue, cycles ([12]; 29 cycles): 6.8% | grade ½ anemia, cycles ([12]; 50 cycles): 11.7% | grade ½ neutropenia, cycles ([12]; 67 of 426 cycles): 15.7% | sulfurous eructations, cycles ([12]; 79 cycles, resolved with a PPI in >90% of patients): 18.5% | overall tolerability ([12]; 426 cycles in 39 patients, first 12 months): well tolerated | grade 3 or 4 non-hematologic toxicity ([12]; in vivo): no grade 3 or 4 non-hematologic toxicity | grade 4 anemia ([12]; in vivo): no grade 4 incidences | grade 1 or 2 gastrointestinal toxicity (nausea, vomiting or diarrhea) ([12]; managed with dose adjustment alone): Eight
